Data as given in patent US9994547B2, “Heteroarylamide inhibitors of TBK1” (Takeda Pharmaceutical Company Limited, priority 2014, dated 2018).

biological target: Full length human TBK1 (Homo sapiens (Human), UniProt Q9UHD2); experiment: Inhibition of TBK1 Enzyme (Example A); assay type: biochemical; conditions: -log(IC50), IC50 molar; 3 nM TBK1, 25 μM ATP, 60 min RT
Description: Full length human TBK1 with an N-terminal His-tag was cloned into the pFastBacl vector and was transfected into Sf9 cells. 72 hours later the virus was harvested and amplified through two additional rounds of infections. Then 400 mL of the resulting virus stock was used to infect 10 L of Sf9 cells at a density of 2×10^6 cells/mL. Cell pellets were harvested 48 hours post infection and were lysed by freeze-thaw, homogenization and sonication in binding buffer (25 mM Tris pH7.6, 1 M NaCl, 10 mM imidazole, 0.5 mM TCEP) plus 0.1% Triton X-100 and complete protease inhibitor cocktail. The lysate was spun and the supernatant was purified with a HisTrap FF crude and a Superdex 200 pg column.
TBK1 inhibition is determined using a 384 well plate format in buffer containing 20 mM Hepes, pH 7.4, 10 mM MgCl2, 1 mM EDTA, 0.01% Brij-L23, 1 mM DTT. Each test compound is prepared in DMSO using 2.5-fold serial dilutions for 11 data points, which are added to the buffer so that each dilution contains 1% DMSO. To each well is added 2 μL of 1 μM 5FAM-DRHDSGLDSMKDE-NH2 (in buffer), 2 μL of diluted test compound (1% DMSO in buffer), and 5 μL of 3 nM TBK1 and 25 μM ATP (in buffer). The reaction mixture is incubated at RT for 60 min, and quenched by adding 20 mM Hepes, pH 7.4, 10 mM MgCl2, 1 mM EDTA, 0.01% Brij-L23, 1 mM DTT+25 mM EDTA. To quantify the fluorescent-labeled substrate and product following reaction, the test plate is loaded on a Caliper LC-3000, which measures percent of conversion by microfluidic-based separation. Corresponding IC50 values are calculated by non-linear curve fitting of the compound concentrations and percent of inhibition to the standard IC50 equation and reported as pIC50, i.e., −log(IC50), where IC50 is the molar concentration.

Chain of Full length human TBK1 (Q9UHD2 whole entry): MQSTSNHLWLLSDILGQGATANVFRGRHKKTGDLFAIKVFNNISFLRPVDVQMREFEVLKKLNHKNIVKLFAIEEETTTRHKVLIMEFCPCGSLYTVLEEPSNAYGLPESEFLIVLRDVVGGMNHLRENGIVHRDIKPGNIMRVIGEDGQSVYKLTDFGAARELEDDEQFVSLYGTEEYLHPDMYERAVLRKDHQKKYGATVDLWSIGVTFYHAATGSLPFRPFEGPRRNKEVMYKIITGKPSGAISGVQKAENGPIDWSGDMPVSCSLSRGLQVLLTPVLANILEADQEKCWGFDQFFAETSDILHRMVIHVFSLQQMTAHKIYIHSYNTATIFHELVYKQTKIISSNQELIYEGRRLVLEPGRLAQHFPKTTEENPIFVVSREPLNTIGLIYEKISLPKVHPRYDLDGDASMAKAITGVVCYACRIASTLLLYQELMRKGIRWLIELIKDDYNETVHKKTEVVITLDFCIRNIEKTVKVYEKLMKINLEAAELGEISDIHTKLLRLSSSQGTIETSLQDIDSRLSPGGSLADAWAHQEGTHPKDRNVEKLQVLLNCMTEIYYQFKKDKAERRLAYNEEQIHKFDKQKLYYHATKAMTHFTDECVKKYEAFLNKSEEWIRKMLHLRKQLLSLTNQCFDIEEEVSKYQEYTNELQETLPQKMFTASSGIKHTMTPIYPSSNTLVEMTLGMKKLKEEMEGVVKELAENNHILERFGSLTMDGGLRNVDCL

TBK1 Inhibition (pIC50) | SMILES
8.6 | C[C@H](Nc1cc(-c2cnc(NC(=O)C3CC3)cn2)cnc1C#N)C(=O)N(C)CC(F)F [Example 53, (S)-N-(5-(6-cyano-5-((1-((2,2-difluoroethyl)(methyl)amino)-1-oxopropan-2-yl)amino)pyridin-3-yl)pyrazin-2-yl)cyclopropanecarboxamide]
8.0 | C[C@H](Nc1cc(-c2cnc(NC(=O)C3CC3)cn2)cnc1C#N)C(=O)N(C)CCF [Example 54, (S)-N-(5-(6-cyano-5-((1-((2-fluoroethyl)(methyl)amino)-1-oxopropan-2-yl)amino)pyridin-3-yl)pyrazin-2-yl)cyclopropanecarboxamide]
7.6 | C[C@H](Nc1cc(-c2cnc(NC(=O)C3CC3)cn2)cnc1C#N)C(=O)N1CCC[C@@H]1C#N [Example 55, N-(5-(6-cyano-5-(((S)-1-((R)-2-cyanopyrrolidin-1-yl)-1-oxopropan-2-yl)amino)pyridin-3-yl)pyrazin-2-yl)cyclopropanecarboxamide]
7.7 | CC[C@H](Nc1cc(-c2cnc(NC(=O)C3CC3)cn2)cnc1C#N)C(=O)N(C)CCF [Example 56, (S)-N-(5-(6-cyano-5-((1-((2-fluoroethyl)(methyl)amino)-1-oxobutan-2-yl)amino)pyridin-3-yl)pyrazin-2-yl)cyclopropanecarboxamide]
7.2 | CN(C)C(=O)[C@H](CO)Nc1cc(-c2cnc(NC(=O)C3CC3)cn2)cnc1C#N [Example 57, (S)-N-(5-(6-cyano-5-((1-(dimethylamino)-3-hydroxy-1-oxopropan-2-yl)amino)pyridin-3-yl)pyrazin-2-yl)cyclopropanecarboxamide]
7.3 | CN(CC(F)F)C(=O)[C@H](CO)Nc1cc(-c2cnc(NC(=O)C3CC3)cn2)cnc1C#N [Example 58, (S)-N-(5-(6-cyano-5-((1-((2,2-difluoroethyl)(methyl)amino)-3-hydroxy-1-oxopropan-2-yl)amino)pyridin-3-yl)pyrazin-2-yl)cyclopropanecarboxamide]
6.7 | CC(C#N)NC(=O)CNc1cc(-c2cnc(NC(=O)C3CC3)cn2)cnc1C#N (stereo not shown) [Example 59, N-(5-(6-cyano-5-((2-((1-cyanoethyl)amino)-2-oxoethyl)amino)pyridin-3-yl)pyrazin-2-yl)cyclopropanecarboxamide]
7.4 | C[C@H](Nc1cc(-c2cnc(NC(=O)C3CC3)cn2)cnc1C#N)C(=O)N1CCO[C@@H]1C(F)(F)F [Example 60, N-(5-(6-cyano-5-((S)-1-oxo-1-((R)-2-(trifluoromethyl)oxazolidin-3-yl)propan-2-ylamino)pyridin-3-yl)pyrazin-2-yl)cyclopropanecarboxamide]
6.0 | C[C@H](Nc1cc(-c2cnc(NC(=O)C3CC3)cn2)cnc1C#N)C(=O)N1CCO[C@H]1C(F)(F)F [Example 61, N-(5-(6-cyano-5-((S)-1-oxo-1-((S)-2-(trifluoromethyl)oxazolidin-3-yl)propan-2-ylamino)pyridin-3-yl)pyrazin-2-yl)cyclopropanecarboxamide]
6.6 | CC(C#N)NC(=O)[C@H](C)Nc1cc(-c2cnc(NC(=O)C3CC3)cn2)cnc1C#N (stereo partly drawn) [Example 62, N-(5-(6-cyano-5-(((2S)-1-((1-cyanoethyl)amino)-1-oxopropan-2-yl)amino)pyridin-3-yl)pyrazin-2-yl)cyclopropanecarboxamide]
7.2 | N#Cc1ncc(-c2cnc(NC(=O)C3CC3)cn2)cc1NCC(=O)N1CCOCC1C#N (stereo not shown) [Example 63, N-(5-(6-cyano-5-((2-(3-cyanomorpholino)-2-oxoethyl)amino)pyridin-3-yl)pyrazin-2-yl)cyclopropanecarboxamide]
7.5 | N#Cc1ncc(-c2cnc(NC(=O)C3CC3)cn2)cc1NCC(=O)N1CCOC1C(F)(F)F (stereo not shown) [Example 64, N-(5-(6-cyano-5-((2-oxo-2-(2-(trifluoromethyl)oxazolidin-3-yl)ethyl)amino)pyridin-3-yl)pyrazin-2-yl)cyclopropanecarboxamide]
6.9 | CN(CCC#N)C(=O)CNc1cc(-c2cnc(NC(=O)C3CC3)cn2)cnc1C#N [Example 65, N-(5-(6-cyano-5-((2-((2-cyanoethyl)(methyl)amino)-2-oxoethyl)amino)pyridin-3-yl)pyrazin-2-yl)cyclopropanecarboxamide]
6.6 | CN(CCS(C)(=O)=O)C(=O)CNc1cc(-c2cnc(NC(=O)C3CC3)cn2)cnc1C#N [Example 66, N-(5-(6-cyano-5-((2-(methyl(2-(methylsulfonyl)ethyl)amino)-2-oxoethyl)amino)pyridin-3-yl)pyrazin-2-yl)cyclopropanecarboxamide]
6.3 | C[C@H](Nc1cc(-c2cnc(NC(=O)C3CC3)cn2)cnc1C#N)C(=O)N(C)CCN(C)C [Example 67, (S)-N-(5-(6-cyano-5-((1-((2-(dimethylamino)ethyl)(methyl)amino)-1-oxopropan-2-yl)amino)pyridin-3-yl)pyrazin-2-yl)cyclopropanecarboxamide]
7.4 | CN(C)C(=O)C(CC(F)F)Nc1cc(-c2cnc(NC(=O)C3CC3)cn2)cnc1C#N (stereo not shown) [Example 68, N-(5-(6-cyano-5-((1-(dimethylamino)-4,4-difluoro-1-oxobutan-2-yl)amino)pyridin-3-yl)pyrazin-2-yl)cyclopropanecarboxamide]
7.7 | CC(C#N)N(C)C(=O)[C@H](C)Nc1cc(-c2cnc(NC(=O)C3CC3)cn2)cnc1C#N (stereo partly drawn) [Example 69, N-(5-(6-cyano-5-(((2S)-1-((1-cyanoethyl)(methyl)amino)-1-oxopropan-2-yl)amino)pyridin-3-yl)pyrazin-2-yl)cyclopropanecarboxamide]
7.1 | CC[C@H](Nc1cc(-c2cnc(NC(=O)C3CC3)cn2)cnc1C#N)C(=O)N(C)CCO [Example 70, (S)-N-(5-(6-cyano-5-((1-((2-hydroxyethyl)(methyl)amino)-1-oxobutan-2-yl)amino)pyridin-3-yl)pyrazin-2-yl)cyclopropanecarboxamide]
6.6 | CN(C(=O)CNc1cc(-c2cnc(NC(=O)C3CC3)cn2)cnc1C#N)C1CCOC1 (stereo not shown) [Example 71, N-(5-(6-cyano-5-((2-(methyl(tetrahydrofuran-3-yl)amino)-2-oxoethyl)amino)pyridin-3-yl)pyrazin-2-yl)cyclopropanecarboxamide]
7.8 | N#Cc1ncc(-c2cnc(NC(=O)C3CC3)cn2)cc1NCC(=O)N(CCO)CC(F)F [Example 72, N-(5-(6-cyano-5-((2-((2,2-difluoroethyl)(2-hydroxyethyl)amino)-2-oxoethyl)amino)pyridin-3-yl)pyrazin-2-yl)cyclopropanecarboxamide]
7.0 | C[C@H](Nc1cc(-c2cnc(NC(=O)C3CC3)cn2)cnc1C#N)C(=O)N(C)CC1CC1 [Example 73, (S)-N-(5-(6-cyano-5-((1-((cyclopropylmethyl)(methyl)amino)-1-oxopropan-2-yl)amino)pyridin-3-yl)pyrazin-2-yl)cyclopropanecarboxamide]
5.5 | C[C@H](Nc1cc(-c2cnc(NC(=O)C3CC3)cn2)cnc1C#N)C(=O)N(C)c1cccnc1 [Example 74, (S)-N-(5-(6-cyano-5-((1-(methyl(pyridin-3-yl)amino)-1-oxopropan-2-yl)amino)pyridin-3-yl)pyrazin-2-yl)cyclopropanecarboxamide]
